Among the data in publication PMC6889490, “General structural features that regulate integrin affinity revealed by atypical αVβ8” (Nature Communications, 2019) are Kd values, retold here.

Ends that are not written are not given here. * marks the point of attachment. FITC = O=C1OC2(c3ccc(O)cc3Oc3cc(O)ccc32)c2ccc(NC(=S)*)cc21; Ahx = NCCCCCC(=O)O

One test addresses αVβ6-WT. The test is described as follows: Fluorescence polarization saturation binding, αVβ6-WT. Particulars: 2, 5 and 10 nM probe, repeat1 and repeat2, 2 replicates each. An excerpt:
As in statistical models for determining p values, the fit assumes that errors are independent and normally distributed. The reported fit minimizes the sum of the squared errors. […] Source data for a, b are provided as a Source Data file. c Representative negative stain class averages of mutant or WT integrin headpieces alone (upper panels) or complexed with pro-TGF-β1. Representative 2:1 pro-TGF-β1:integrin class averages are shown.

For test [1], the target named is T1, pro-TGF-β3 peptide (Homo sapiens).
T1 chain: {FITC-Ahx}-GRGDLGRLKK
The test is described as follows: fluorescence polarization. A general note: In fluorescence polarisation assays a small probe gives low polarisation when free and higher when bound to something large.

The target in test [2] is T2, pro-TGF-β3 peptide (Homo sapiens).
T2 chain: {FITC-Ahx}-GRGDLGRLKK
As to the kind of experiment: fluorescence polarization.

In general, Kd refers to the concentration at which binding is half-saturated. A high value points to weaker binding. Consider avb6-WT, for which the dissociation constant (Kd) on αVβ6-WT (Mg fitting results, Std.Error 1.672e-10, 99% confidence interval 2.49E-09 (lower), 3.37E-09 (upper)) stood at 2.93 nM; on αVβ6-WT (Mn fitting results, Std.Error 5.139e-11, 99% confidence interval 1.21E-10 (lower), 3.88E-10 (upper)) it was 0.254 nM.

B1: Integrin αVβ8 headpiece αV 1-594 + β8 1-456 (protein)
chain 1: FNLDVDSPAEYSGPEGSYFGFAVDFFVPSASSRMFLLVGAPKANTTQPGIVEGGQVLKCDWSSTRRCQPIEFDATGNRDYAKDDPLEFKSHQWFGASVRSKQDKILACAPLYHWRTEMKQEREPVGTCFLQDGTKTVEYAPCRSQDIDADGQGFCQGGFSIDFTKADRVLLGGPGSFYWQGQLISDQVAEIVSKYDPNVYSIKYNNQLATRTAQAIFDDSYLGYSVAVGDFNGDGIDDFVSGVPRAARTLGMVYIYDGKNMSSLYNFTGEQMAAYFGFSVAATDINGDDYADVFIGAPLFMDRGSDGKLQEVGQVSVSLQRASGDFQTTKLNGFEVFARFGSAIAPLGDLDQDGFNDIAIAAPYGGEDKKGIVYIFNGRSTGLNAVPSQILEGQWAARSMPPSFGYSMKGATDIDKNGYPDLIVGAFGVDRAILYRARPVITVNAGLEVYPSILNQDNKTCSLPGTALKVSCFNVRFCLKADGKGVLPRKLNFQVELLLDKLKQKGAIRRALFLYSRSPSHSKNMTISRGGLMQCEELIAYLRDESEFRDKLTPITIFMEYRLDYRTAADTTGLQPILNQFTPANISRQAHILLDCGEDNVCKPKLEVSVDSDQKKIYIGDDNPLTLIVKAQNQGEGAYEAELIVSIPLQADFIGVVRNNEALARLSCAFKTENQTRQVVCDLGNPMKAGTQLLAGLRFSVHQQSEMDTSVKFDLQIQSSNLFDKVSPVVSHKVDLAVLAAVEIRGVSSPDHVFLPIPNWEHKENPETEEDVGPVVQHIYELRNNGPSSFSKAMLHLQWPYKYNNNTLLYILHYDIDGPMNCTSDMEINPLRIKISSLQTTEKNDTVAGQGERDHLITKRDLALSEGDIHTLGCGVAQCLKIVCQVGRLDRGKSAILYVKSLLWTETFMNKENQNHSYSLKSSASFNVIEFPYKNLPIEDITNSTLVTTNVTWGIQPAPMPV
chain 2: EDNRCASSNAASCARCLALGPECGWCVQEDFISGGSRSERCDIVSNLISKGCSVDSIEYPSVHVIIPTENEINTQVTPGEVSIQLRPGAEANFMLKVHPLKKYPVDLYYLVDVSASMHNNIEKLNSVGNDLSRKMAFFSRDFRLGFGSYVDKTVSPYISIHPERIHNQCSDYNLDCMPPHGYIHVLSLTENITEFEKAVHRQKISGNIDTPEGGFDAMLQAAVCESHIGWRKEAKRLLLVMTDQTSHLALDSKLAGIVVPNDGNCHLKNNVYVKSTTMEHPSLGQLSEKLIDNNINVIFAVQGKQFHWYKDLLPLLPGTIAGEIESKAANLNNLVVEAYQKLISEVKVQVENQVQGIYFNITAICPDGSRKPGMEGCRNVTSNDEVLFNVTVTMKKCDVTGGKNYAIIKPIGFNETAKIHIHRNCSCQCEDNRGPKGKCVDETFLDSKCFQCDENKCHFDEDQFSSESCKSHKDQPVCSGRGVCVCGKCSCHKIKLGKVYGKYCEKDDFSCPYHHGNLCAGHGECEAGRCQCFSGWEGDRCQCPSAAAQHCVNSKGQVCSGRGTCVCGRCECTDPRSIGRFCEHCPTCYTACKENWNCMQCLHPHNLSQAILDQCKTSCALMEQQHYVDQTSECFSSPSYLR
With B1, the Kd in the test with pro-TGF-β3 peptide [1] came out at 30 nM.

B2: Integrin αVβ6 headpiece headpiece (protein)
chain 1: FNLDVDSPAEYSGPEGSYFGFAVDFFVPSASSRMFLLVGAPKANTTQPGIVEGGQVLKCDWSSTRRCQPIEFDATGNRDYAKDDPLEFKSHQWFGASVRSKQDKILACAPLYHWRTEMKQEREPVGTCFLQDGTKTVEYAPCRSQDIDADGQGFCQGGFSIDFTKADRVLLGGPGSFYWQGQLISDQVAEIVSKYDPNVYSIKYNNQLATRTAQAIFDDSYLGYSVAVGDFNGDGIDDFVSGVPRAARTLGMVYIYDGKNMSSLYNFTGEQMAAYFGFSVAATDINGDDYADVFIGAPLFMDRGSDGKLQEVGQVSVSLQRASGDFQTTKLNGFEVFARFGSAIAPLGDLDQDGFNDIAIAAPYGGEDKKGIVYIFNGRSTGLNAVPSQILEGQWAARSMPPSFGYSMKGATDIDKNGYPDLIVGAFGVDRAILYRARPVITVNAGLEVYPSILNQDNKTCSLPGTALKVSCFNVRFCLKADGKGVLPRKLNFQVELLLDKLKQKGAIRRALFLYSRSPSHSKNMTISRGGLMQCEELIAYLRDESEFRDKLTPITIFMEYRLDYRTAADTTGLQPILNQFTPANISRQAHILLDCGEDNVCKPKLEVSVDSDQKKIYIGDDNPLTLIVKAQNQGEGAYEAELIVSIPLQADFIGVVRNNEALARLSCAFKTENQTRQVVCDLGNPMKAGTQLLAGLRFSVHQQSEMDTSVKFDLQIQSSNLFDKVSPVVSHKVDLAVLAAVEIRGVSSPDHVFLPIPNWEHKENPETEEDVGPVVQHIYELRNNGPSSFSKAMLHLQWPYKYNNNTLLYILHYDIDGPMNCTSDMEINPLRIKISSLQTTEKNDTVAGQGERDHLITKRDLALSEGDIHTLGCGVAQCLKIVCQVGRLDRGKSAILYVKSLLWTETFMNKENQNHSYSLKSSASFNVIEFPYKNLPIEDITNSTLVTTNVTWGIQPAPMPV
chain 2: GCALGGAETCEDCLLIGPQCAWCAQENFTHPSGVGERCDTPANLLAKGCQLNFIENPVSQVEILKNKPLSVGRQKNSSDIVQIAPQSLILKLRPGGAQTLQVHVRQTEDYPVDLYYLMDLSASMDDDLNTIKELGSRLSKEMSKLTSNFRLGFGSFVEKPVSPFVKTTPEEIANPCSSIPYFCLPTFGFKHILPLTNDAERFNEIVKNQKISANIDTPEGGFDAIMQAAVCKEKIGWRNDSLHLLVFVSDADSHFGMDSKLAGIVIPNDGLCHLDSKNEYSMSTVLEYPTIGQLIDKLVQNNVLLIFAVTQEQVHLYENYAKLIPGATVGLLQKDSGNILQLIISAYEELRSEVELEVLGDTEGLNLSFTAICNNGTLFQHQKKCSHMKVGDTASFSVTVNIPHCERRSRHIIIKPVGLGDALELLVSPECNCDCQKEVEVNSSKCHHGNGSFQCGVCACHPGHMGPRCECGEDMLSTDSCKEAPDHPSCSGRGDCYCGQCICHLSPYGNIYGPYCQCDNFSCVRHKGLLCGGNGDCDCGECVCRSGWTGEYCNCTTSTDSCVSEDGVLCSGRGDCVCGKCVCTNPGASGPTCERCPTCGDPCNSKRSCIECHLSAAGQAREECVDKCKLAGATISEEEDFSKDGSVSCSLQGENECLITFLITTDNEGKTIIHSINEKDCPKPPNIP
Take B2: in the test with pro-TGF-β3 peptide [2], the dissociation constant (Kd) turned out to be 12 nM.
